The values that follow come from patent US20200239962A1, “COMPOSITIONS AND METHODS FOR DETECTING A NEOPLASIA” (The Johns Hopkins University, priority 2010, published 2020).

The test has as its system BNC1 and ADAMTS1 gene expression in pancreatic cancer cell lines (Panc1, MIA-PaCa2, Capan1, PL45). Kind of test: Quantitative RT-PCR re-expression of silenced BNC1 and ADAMTS1 after drug treatment. It counts as cell-based, human. The conditions noted are these: 5 uM DAC or 300 nM TSA, relative to mock-treated cells; TSA result excepts PL45. The method, then:
FIGS. 2A, 2B, and 2C depict promoter methylation gels and corresponding bar graphs, a CpG methylation diagram, and a schematic depicting methylation-on-bead (MOB) technology, respectively. […] M=methylation signal; U=unmethylated signal. IVD=in vitro methylated DNA. Real-time RT-PCR expression is shown as fold change ±SE relative to mock-treated cells during 5 uM 5-Aza-deoxycitidine (DAC) and 300 nM Trichostatin A (TSA) treatments. […] The BNC1 promoter regions is depicted as a line, with CpG regions designated as vertical slashes. TIS indicates the transcriptional start site. Location of CpG sites (bisulfite priners (BST): upstream region from −331 to +36 relative to transcriptional start site). […] Samples are analyzed using MS-qFRET or gel electrophoresis.
This genome-wide DNA hypermethylome screening is based on a pharmacological approach using 5-deoxy-azacytidineand TSA, which has shown an excellent correlation between promoter DNA methylation and inhibition of gene expression and re-expression after treatment with a DNA demethylating drug, such as 5-deoxy-azacytidine, in prior studies on breast and colorectal cancer. Here, promoter methylation of BNC1 and ADAMTS1 was tested, and correlated with a lack of gene expression in pancreatic cancer cell lines (Panc1, MIA-PaCa2, Capan1, and PL45) using quantitative RT-PCR (qRT-PCR) (FIG. 2A, upper panel). […]

As for `Nc1ncn([C@H]2C[C@H](O)[C@@H](CO)O2)c(=O)n1` [5-deoxy-azacytidine], the “re-expression of BNC1 and ADAMTS1 (qRT-PCR)” value is “significant re-expression”. On to `CC(/C=C/C(=O)NO)=C\[C@@H](C)C(=O)c1ccc(N(C)C)cc1` [TSA, Trichostatin A], for which the “re-expression of BNC1 and ADAMTS1 (qRT-PCR)” value was “minimal re-expression”.
